# Reference: patent US8889878B2, “Haloalky-substituted amides as insecticides and acaricides” (Bayer CropScience AG, priority 2009, dated 2014)
# Experiments:
# [1] = tested on: armyworm (Spodoptera frugiperda); experiment: Spodoptera frugiperda test (SPODFR spray treatment), Example 15; format: in vivo; settings: application rate 100 g/ha, maize leaf discs sprayed, after 7 days
# Method in brief: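 Maize leaf discs sprayed with active ingredient in acetone/DMF with alkylaryl polyglycol ether emulsifier, diluted in water, then populated with caterpillars after drying. Efficacy in % after 7 days: 100% all caterpillars killed, 0% none.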
# [2] = tested on: Musca domestica adults; experiment: Musca domestica test (MUSCDO), Example 14; format: in vivo; settings: application rate 100 ppm, treated sponge, after 2 days
# Method in brief: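 Compound dissolved in DMSO and diluted in water to the test concentration, then applied to a sponge in vessels holding adult flies. Percent kill scored after 2 days (100% = all flies dead).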
# [3] = tested on: Tick nymphs (Amblyomma hebraeum); experiment: Amblyomma hebaraeum test (AMBYHE), Example 9; format: in vivo; settings: application rate 100 ppm, immersed one minute, after 42 days
# Protocol: Amblyomma hebaraeum Test (AMBYHE) • Solvent: dimethyl sulphoxide To prepare an appropriate active ingredient formulation, 10 mg of active ingredient are mixed with 0.5 ml of dimethyl sulphoxide, and the concentrate is diluted with water to the desired concentration. Tick nymphs (Amblyomma hebraeum) are placed into perforated plastic cups and immersed in the desired concentration for one minute. The ticks are transferred onto filter papers in a Petri dish and stored in a climate-controlled cabinet. After 42 days, the kill rate in % is determined. 100% means that all ticks were killed; 0% means that no ticks were killed.
# [4] = tested on: green peach aphid (Myzus persicae); experiment: Myzus test (MYZUPE spray treatment), Example 17; format: in vivo; settings: china cabbage leaf discs sprayed, after 6 days
# Method in brief: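 Chinese cabbage leaf discs infested with all aphid stages were sprayed with compound formulated in acetone/dimethylformamide plus alkylaryl polyglycol ether emulsifier, diluted in emulsifier-containing water. Mortality read after 6 days as % efficacy (100% all killed, 0% none killed).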
# [5] = tested on: Boophilus microplus females of the SP-resistant Parkhurst strain; experiment: Boophilus microplus test (DIP), Example 10; format: in vivo; settings: application rate 100 ppm, after 7 days
# Protocol: Boophilus microplus Test (DIP)
# Test animals: adult engorged Boophilus microplus females of the SP-resistant Parkhurst strain • Solvent: dimethyl sulphoxide
# 10 mg of active ingredient are dissolved in 0.5 ml of dimethyl sulphoxide. For the purpose of preparing a suitable formulation, the active ingredient solution is diluted with water to the concentration desired in each case.
# This active ingredient formulation is pipetted into tubes. 8-10 ticks are transferred into a further tube with holes. The tube is immersed into the active ingredient formulation, and all ticks are completely wetted. After the liquid has run out, the ticks are transferred onto filter discs in plastic dishes and stored in a climate-controlled room. The efficacy is assessed after 7 days by the number of fertile eggs laid. Eggs whose fertility is not outwardly visible are stored in glass tubes in a climate-controlled cabinet until the larvae hatch. Efficacy of 100% means that none of the ticks has laid any fertile eggs.
# [6] = tested on: Boophilus microplus; experiment: Boophilus microplus test (BOOPMI injection), Example 11; format: in vivo; settings: application rate 20 μg/animal, injected into abdomen, after 7 days
# Method in brief: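 Adult ticks injected in the abdomen with compound diluted in DMSO, then held in a climate-controlled room. Efficacy in % determined after 7 days from fertile eggs laid; 100% means no tick laid fertile eggs.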
# [7] = logP by HPLC on reverse-phase column (EEC Directive 79/831 Annex V.A8); format: physicochemical; settings: HPLC-MS
# Protocol: The logP values reported in the above Tables and Preparation Examples were determined according to EEC Directive 79/831 Annex V.A8 by HPLC (High Performance Liquid Chromatography) on a reverse-phase column (C18). Temperature 43° C.
# [8] = tested on: mustard beetle (Phaedon cochleariae); experiment: Phaedon test (PHAECO spray treatment), Example 7; format: in vivo; settings: application rate 20 g/ha, china cabbage leaf discs sprayed, after 7 days
# Method in brief: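 Spray formulation (acetone/DMF with alkylaryl polyglycol ether, diluted in emulsifier-containing water) applied to Chinese cabbage leaf discs, which were dried and then stocked with mustard beetle larvae. Efficacy scored at 7 days as % larvae killed (100% all, 0% none).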
# [9] = tested on: armyworm (Spodoptera frugiperda); experiment: Spodoptera frugiperda test (SPODFR spray treatment), Example 6; format: in vivo; settings: application rate 20 g/ha, maize leaf discs sprayed, after 7 days
# Protocol: Spodoptera frugiperda Test (SPODFR Spray Treatment)
# • Solvent: 78.0 parts by weight of acetone • 1.5 parts by weight of dimethylformamide • Emulsifier: 0.5 part by weight of alkylaryl polyglycol ether
# To prepare an active ingredient formulation, 1 part by weight of active ingredient was mixed with the stated amounts of solvent and emulsifier, and the concentrate was diluted with emulsifier-containing water to the desired concentration. Leaf discs from maize (Zea mays) are sprayed with an active ingredient formulation of the desired concentration and, after drying, populated with caterpillars of the armyworm (Spodoptera frugiperda).
# After 7 days, the efficacy in % is determined. 100% means that all caterpillars were killed; 0% means that no caterpillars were killed.
# [10] = tested on: red spider mite (Tetranychus urticae); experiment: Tetranychus test, OP-resistant (TETRUR spray treatment), Example 8; format: in vivo; settings: application rate 20 g/ha, common bean leaf discs sprayed, after 6 days
# Method in brief: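 Bean (Phaseolus vulgaris) leaf discs carrying all stages of OP-resistant Tetranychus urticae sprayed with compound in acetone/DMF with emulsifier, diluted in water to the test concentration. Mortality scored after 6 days as % efficacy (100% = all mites killed).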
# [11] = tested on: Ctenocephalides felis; experiment: Ctenocephalides felis oral (CTECFE), Example 12; format: in vivo; settings: application rate 100 ppm in citrated cow's blood, after 2 days
# Protocol: Ctenocephalides felis Oral ([…]) • Solvent: 1 part by weight of dimethyl sulphoxide For the purpose of preparing an appropriate active ingredient formulation, 10 mg of active ingredient are mixed with 0.5 ml of dimethyl sulphoxide. A portion of the concentrate is diluted with citrated cow's blood and the desired concentration is established. About 20 unfed adult fleas (Ctenocephalides felis) are placed into a chamber sealed at the top and bottom with gauze. A metal cylinder with its lower end sealed with Parafilm is placed onto the chamber. The cylinder contains the blood-active ingredient preparation, which can be consumed by the fleas through the Parafilm membrane. After 2 days, the kill rate in % is determined. 100% means that all fleas were killed; 0% means that no fleas were killed.
# [12] = tested on: Lucilia cuprina larvae; experiment: Lucilia cuprina test (LUCICU), Example 3; format: in vivo; settings: application rate 20 ppm, treated horsemeat, after 2 days
# Protocol: (§1) Lucilia cuprina Test (LUCICU) • Solvent: dimethyl sulphoxide To prepare an active ingredient formulation, 10 mg of active ingredient are mixed with 0.5 ml of dimethyl sulphoxide, and the concentrate is diluted with water to the desired concentration. Vessels containing horsemeat which has been treated with the active ingredient formulation of the desired concentration are populated with Lucilia cuprina larvae. After 2 days, the kill rate in % is determined. 100% means that all larvae were killed; 0% means that no larvae were killed.
# [13] = tested on: Musca domestica adults; experiment: Musca domestica test (MUSCDO), Example 4; format: in vivo; settings: application rate 20 ppm, treated sponge, after 2 days
# Protocol: as §1, with “Musca domestica” for “Lucilia cuprina”, “(MUSCDO)” for “(LUCICU)”, “a sponge” for “horsemeat”, “Musca domestica adults.” for “Lucilia cuprina larvae.”, “flies” for “larvae”
# [14] = tested on: Boophilus microplus; experiment: Boophilus microplus test (BOOPMI injection), Example 1; format: in vivo; settings: application rate 20 μg/animal, injected into abdomen, after 7 days
# Method in brief: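 Compound in DMSO, diluted with water, injected into the abdomen of engorged ticks, which were then held in a climate-controlled room. Efficacy was scored after 7 days from fertile egg laying, with 100% meaning no tick laid fertile eggs.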
# [15] = tested on: Ctenocephalides felis; experiment: Ctenocephalides felis oral (CTECFE), Example 2; format: in vivo; settings: application rate 20 ppm in citrated cow's blood, after 2 days
# Method in brief: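 Compound in DMSO diluted into citrated cow's blood, offered to 20 unfed adult C. felis through a Parafilm membrane. Kill rate (%) scored after 2 days; 100% means all fleas dead.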
SMILES,efficacy in % [1] [%],kill rate in % (efficacy) [2] [%],kill rate in % (efficacy) [3] [%],efficacy in % ([4]; application rate 100 g/ha) [%],efficacy in % (fertile eggs laid) [5] [%],efficacy in % (fertile eggs laid) [6] [%],logP [7],efficacy in % [8] [%],efficacy in % [9] [%],efficacy in % [10] [%],kill rate in % (efficacy) [11] [%],kill rate in % (efficacy) [12] [%],kill rate in % (efficacy) [13] [%],efficacy in % (fertile eggs laid) [14] [%],kill rate in % (efficacy) [15] [%],efficacy in % ([4]; application rate 500 g/ha) [%]
C#CC(C)NC(=O)c1ccc(/C=C/C(=O)NC(c2cccc(C(F)(F)F)c2)C(F)(F)F)cc1Cl (centres unmarked) [Ia-161],100,80,100,90,98,100,HPLC-MS: logP = 3.43; mass,–,–,–,–,–,–,–,–,–
O=C(/C=C/c1ccc(C(=O)Nc2ccccn2)c(C(F)(F)F)c1)NC(c1cc(Cl)cc(C(F)(F)F)c1)C(F)(F)F (centres unmarked) [Ia-82],–,–,–,–,–,100,HPLC-MS: logP = 4.32; mass,100,83,–,–,–,–,–,–,–
O=C(/C=C/c1ccc(C(=O)Nc2ccccn2)c(C(F)(F)F)c1)NC(c1cccc(C(F)(F)F)c1)C(F)(F)F (centres unmarked) [Ia-54],–,–,–,–,–,100,HPLC-MS: logP = 3.58; mass,100,100,100,95,–,–,–,–,–
O=C(/C=C/c1ccc(C(=O)Nc2ccc(Cl)nc2)c(C(F)(F)F)c1)NC(c1cccc(C(F)(F)F)c1)C(F)(F)F (centres unmarked) [Ia-72],–,–,–,–,–,–,HPLC-MS: logP = 3.73; mass,100,83,–,–,–,–,–,–,–
CC(NC(=O)c1ccc(/C=C/C(=O)NC(c2cccc(C(F)(F)F)c2)C(F)(F)F)cc1C(F)(F)F)C(F)(F)F (centres unmarked) [Ia-30],–,100,–,–,–,100,HPLC-MS: logP = 3.58; mass,–,–,–,–,100,85,100,100,–
O=C(/C=C/c1ccc(C(=O)NC2CCC2)c(Cl)c1)NC(c1cccc(C(F)(F)F)c1)C(F)(F)F (centres unmarked) [Ia-162],–,–,100,100,100,100,HPLC-MS: logP = 3.59; mass,–,–,–,–,–,–,–,–,–
O=C(/C=C/c1ccc(C(=O)NC2CC2)c(C(F)(F)F)c1)NC(c1cccc(C(F)(F)F)c1)C(F)(F)F (centres unmarked) [Ia-23],–,100,–,–,–,100,HPLC-MS: logP = 3.18; mass,100,83,–,–,100,–,100,100,100
